Reference: article PMC7333345, “nanoDSF: In vitro Label-Free Method to Monitor Picornavirus Uncoating and Test Compounds Affecting Particle Stability” (Frontiers in Microbiology, 2020)

Biological target: T1, RV-A2 (native virion capsid; VP1 hydrophobic pocket) (rhinovirus A2, UniProt P04936)
T1 construct: native purified virion (propagated virus, monolithic chromatography); 60 copies each of VP1-VP4 cut from the genome polyprotein; VP4 68 aa; with Capsid protein VP2; Capsid protein VP3; Capsid protein VP4
Experiment: nanoDSF (intrinsic tryptophan fluorescence, Em350/Em330 ratio)
Type: binding
Settings: 1 mM pleconaril, 2% DMSO, PBS, 1 °C/min, RV-A2 0.5 mg/ml (1 mg/ml in Figure 3 legend), whole virion, against DMSO control

T1 sequence (P04936 2-850): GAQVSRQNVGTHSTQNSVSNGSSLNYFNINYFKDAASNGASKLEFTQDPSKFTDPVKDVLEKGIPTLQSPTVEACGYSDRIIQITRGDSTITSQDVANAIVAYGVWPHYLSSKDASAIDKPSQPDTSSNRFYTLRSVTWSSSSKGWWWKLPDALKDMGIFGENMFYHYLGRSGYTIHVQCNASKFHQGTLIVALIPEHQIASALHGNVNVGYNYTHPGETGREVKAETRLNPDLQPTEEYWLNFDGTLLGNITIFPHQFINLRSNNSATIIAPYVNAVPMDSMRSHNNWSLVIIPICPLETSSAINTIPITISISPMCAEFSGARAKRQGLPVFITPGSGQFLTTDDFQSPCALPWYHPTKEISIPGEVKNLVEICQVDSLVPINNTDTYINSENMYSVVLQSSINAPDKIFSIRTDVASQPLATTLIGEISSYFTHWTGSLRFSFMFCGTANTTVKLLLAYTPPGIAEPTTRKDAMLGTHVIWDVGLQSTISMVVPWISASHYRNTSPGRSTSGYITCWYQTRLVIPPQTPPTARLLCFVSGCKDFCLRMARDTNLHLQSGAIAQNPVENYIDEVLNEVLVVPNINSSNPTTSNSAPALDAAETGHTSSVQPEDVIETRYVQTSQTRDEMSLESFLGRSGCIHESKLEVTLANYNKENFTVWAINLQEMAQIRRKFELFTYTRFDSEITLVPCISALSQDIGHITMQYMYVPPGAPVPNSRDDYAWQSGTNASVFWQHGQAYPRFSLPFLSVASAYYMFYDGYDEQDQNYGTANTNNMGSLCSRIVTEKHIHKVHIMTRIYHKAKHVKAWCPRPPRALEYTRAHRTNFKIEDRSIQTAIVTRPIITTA

Cc1cc(CCCOc2c(C)cc(-c3noc(C(F)(F)F)n3)cc2C)on1 [pleconaril]
shift of TA (50% N to A particle conversion): 5 °C
